Test [1] concerns the target T1, S1P1 (Homo sapiens (Human), UniProt P21453). The experiment in a line: S1P1 Binding Assay (33P-S1P radioligand competition, membranes from CHO cells). Conditions: membranes from CHO cells expressing human S1P1; 0.03 nM 33P-S1P; rounded to two significant digits. As for the experimental part: Membranes were prepared from CHO cells expressing human S1P1. Cells pellets (1×10^8 cells/pellet) were suspended in buffer containing 20 mM HEPES, pH 7.5, 50 mM NaCl, 2 mM EDTA and Protease Inhibitor cocktail (Roche), and disrupted on ice using the Polytron homogenizer. The homogenate was centrifuged at 20,000 rpm (48,000 g) and the supernatant was discarded. The membrane pellets were resuspended in buffer containing 50 mM HEPES, pH 7.5, 100 mM NaCl, 1 mM MgCl2, 2 mM EDTA and stored in aliquots at −80° C. after protein concentration determination.
The IC50 is defined as the concentration of competing ligand needed to reduce specific binding by 50%.
Background: Displacement assays read how much labelled ligand stays bound in the presence of the test substance.

Test [2] has as its target T1, S1P1. The experiment in a line: Receptor [35S] GTPγS Binding Assay, S1P1/CHO cell membranes. The test is classed as biochemical. Conditions: membranes from S1P1/CHO cells; rounded to two significant digits. Here is the method: (§1) Receptor [35S] GTPγS Binding Assays
(§2) Compounds were loaded in a 384 Falcon v-bottom plate (0.5 μl/well in a 11 point, 3-fold dilution). Membranes prepared from S1P1/CHO cells or EDG3-Ga15-bla HEK293T cells were added to the compound plate (40 μl/well, final protein 3 μg/well) with MULTIDROP®. [^35S]GTP (1250 Ci/mmol, Perkin Elmer) was diluted in assay buffer: 20 mM HEPES, pH7.5, 10 mM MgCl2, 150 mM NaCl, 1 mM EGTA, 1 mM DTT, 10 μM GDP, 0.1% fatty acid free BSA, and 10 μg/ml Saponin to 0.4 nM. 40 μl of the [^35S] GTP solution was added to the compound plate with a final concentration of 0.2 nM. The reaction was kept at room temperature for 45 min. At the end of incubation, all the mixtures in the compound plate were transferred to Millipore 384-well FB filter plates via the VELOCITY11® Vprep liquid handler. The filter plate was washed with water 4 times by using the manifold Embla plate washer and dried at 60° C. for 45 min. MicroScint 20 scintillation fluid (30 μl) was added to each well for counting on the Packard TOPCOUNT®. EC50 is defined as the agonist concentration that corresponds to 50% of the Ymax (maximal response) obtained for each individual compound tested. The results in Table B were rounded to two significant digits.
On the technique in general: GTPγS resists hydrolysis and so accumulates on activated G proteins.

In a further test the target is S1P3 (Homo sapiens (Human), UniProt Q99500). The experiment in a line: Receptor [35S] GTPγS Binding Assay, EDG3-Ga15-bla HEK293T cell membranes. Conditions: membranes from EDG3-Ga15-bla HEK293T cells; rounded to two significant digits. The format is biochemical. Here is the method:
as §1, §2

Each structure is given as a SMILES string. Where only a bound is given, the exact number is not on record here.

T1 sequence (P21453 whole entry): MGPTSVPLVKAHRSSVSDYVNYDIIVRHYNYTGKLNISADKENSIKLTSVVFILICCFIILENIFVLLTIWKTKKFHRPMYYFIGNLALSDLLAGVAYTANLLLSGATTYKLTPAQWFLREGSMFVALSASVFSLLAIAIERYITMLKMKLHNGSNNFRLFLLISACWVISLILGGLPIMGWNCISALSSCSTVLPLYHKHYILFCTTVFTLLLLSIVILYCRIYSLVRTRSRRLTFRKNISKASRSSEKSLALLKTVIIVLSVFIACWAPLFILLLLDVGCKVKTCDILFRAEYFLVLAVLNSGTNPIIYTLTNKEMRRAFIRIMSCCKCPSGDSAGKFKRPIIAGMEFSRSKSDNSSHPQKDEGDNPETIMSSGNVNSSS
S1P3, sequence (Q99500 whole entry): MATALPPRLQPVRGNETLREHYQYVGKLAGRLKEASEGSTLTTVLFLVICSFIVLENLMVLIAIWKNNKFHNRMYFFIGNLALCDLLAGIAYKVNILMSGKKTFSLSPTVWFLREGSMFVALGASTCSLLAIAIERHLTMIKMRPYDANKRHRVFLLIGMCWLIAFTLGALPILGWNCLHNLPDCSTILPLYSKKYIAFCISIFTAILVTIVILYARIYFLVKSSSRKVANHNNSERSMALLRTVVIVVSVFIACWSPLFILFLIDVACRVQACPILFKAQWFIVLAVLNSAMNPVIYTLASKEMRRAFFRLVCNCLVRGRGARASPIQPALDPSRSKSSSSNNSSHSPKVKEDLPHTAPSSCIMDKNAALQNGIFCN

`c1ccc(-c2noc(CCC3(c4ccccc4)CCCCC3)n2)cc1` [Example 7, 3-phenyl-5-(2-(1-phenylcyclohexyl)ethyl)-1,2,4-oxadiazole] showed an IC50 on S1P1 [1] of 3.3 nM. The values for the EC50 at S1P1 [2] and on S1P3 were 130 nM and 630 nM, respectively. Compound `Fc1cc(-c2noc(CCC3(c4ccccc4)CCCCC3)n2)ccc1C(F)(F)F` [Example 13, 3-(3-fluoro-4-(trifluoromethyl)phenyl)-5-(2-(1-phenylcyclohexyl)ethyl)-1,2,4-oxadiazole] showed an IC50 at S1P1 [1] of 210 nM. Same read-out and setting: the same measure for `Fc1ccc(-c2noc(CCC3(c4ccccc4)CCCCC3)n2)c(F)c1` [Example 28, 3-(2,4-difluorophenyl)-5-(2-(1-phenylcyclohexyl)ethyl)-1,2,4-oxadiazole]: 25 nM.

On S1P1 [1], `Clc1cc(-c2noc(CCC3(c4ccccc4)CCCCC3)n2)ccn1` [Example 32, 2-chloro-4-(5-(2-(1-phenylcyclohexyl)ethyl)-1,2,4-oxadiazol-3-yl)pyridine] returned an IC50 of 0.54 nM. The EC50 was 50 nM at S1P1 [2] and 430 nM at S1P3. Regarding `Clc1ccc(-c2noc(CCC3(c4ccccc4)CCCCC3)n2)c(Cl)c1` [Example 17, 3-(2,4-dichlorophenyl)-5-(2-(1-phenylcyclohexyl)ethyl)-1,2,4-oxadiazole], the EC50 on S1P1 [2] came out at 740 nM; at S1P3, 1200 nM. For `Cc1cccc(-c2noc(CCC3(c4ccccc4)CCCCC3)n2)c1` [Example 9, 3-(3-methylphenyl)-5-(2-(1-phenylcyclohexyl)ethyl)-1,2,4-oxadiazole], in that order: 530 nM and 2200 nM. As for `Clc1ccc(COc2ccc(-c3noc(CCC4(c5ccccc5)CCCCC4)n3)cc2)cc1` [Example 27, 3-(4-((4-chlorobenzyl)oxy)phenyl)-5-(2-(1-phenylcyclohexyl)ethyl)-1,2,4-oxadiazole], the IC50 on S1P1 [1] is 610 nM. Same read-out and setting: the same measure for `[O-][n+]1ccc(-c2noc(CCC3(c4ccccc4)CCCCC3)n2)cc1` [Example 34, 4-(5-(2-(1-phenylcyclohexyl)ethyl)-1,2,4-oxadiazol-3-yl)pyridine 1-oxide]: 67 nM. `c1ccc(-c2noc(C3(c4ccccc4)CCCCC3)n2)cc1` [Example 42, 3-Phenyl-5-(1-phenylcyclohexyl)-1,2,4-oxadiazole, reference compound]: on S1P1 [1], the half-maximal inhibitory concentration (IC50) was 12000 nM. For the same compound, the EC50 at S1P1 [2] is more than 62000 nM.

With `O=c1cc(-c2noc(CCC3(c4cc(F)cc(F)c4)CCCCC3)n2)cc[nH]1` [Example 2, 4-(5-(2-(1-(3,5-Difluorophenyl)cyclohexyl)ethyl)-1,2,4-oxadiazol-3-yl)-2(1H)-pyridinone], the IC50 on S1P1 [1] worked out at 13 nM. Regarding `COc1cc(OC)cc(-c2noc(CCC3(c4ccccc4)CCCCC3)n2)c1` [Example 19, 3-(3,5-dimethoxyphenyl)-5-(2-(1-phenylcyclohexyl)ethyl)-1,2,4-oxadiazole], the EC50 is 2200 nM on S1P1 [2] and 1700 nM at S1P3. As to `c1ccc(C2(CCc3nc(-c4cccnc4)no3)CCCCC2)cc1` [Example 38, 3-(5-(2-(1-phenylcyclohexyl)ethyl)-1,2,4-oxadiazol-3-yl)pyridine], the EC50 at S1P1 [2] worked out at 100 nM; on S1P3 it was 2200 nM. `Nc1cc(-c2noc(CCC3(c4ccccc4)CCCCC3)n2)ccn1` [Example 29, 4-(5-(2-(1-phenylcyclohexyl)ethyl)-1,2,4-oxadiazol-3-yl)-2-pyridinamine]: the figures for the EC50 on S1P1 [2] and on S1P3 were 36 nM and 430 nM, respectively.

`Cc1ccc(-c2noc(CCC3(c4cc(F)cc(F)c4)CCCCC3)n2)c(=O)[nH]1` [Example 1, 3-(5-(2-(1-(3,5-Difluorophenyl)cyclohexyl)ethyl)-1,2,4-oxadiazol-3-yl)-6-methyl-2(1H)-pyridinone]: the IC50 on S1P1 [1] came out at 1300 nM. Consider `FC(F)(F)c1cc(-c2noc(CCC3(c4ccccc4)CCCCC3)n2)cc(C(F)(F)F)c1` [Example 4, 3-(3,5-bis(trifluoromethyl)phenyl)-5-(2-(1-phenylcyclohexyl)ethyl)-1,2,4-oxadiazole], for which the EC50 at S1P1 [2] is 280 nM; at S1P3, more than 62000 nM. With `Nc1ncccc1-c1noc(CCC2(c3ccccc3)CCCCC2)n1` [Example 33, 3-(5-(2-(1-phenylcyclohexyl)ethyl)-1,2,4-oxadiazol-3-yl)-2-pyridinamine], the IC50 on S1P1 [1] stood at 1.9 nM. The results for the EC50 at S1P1 [2] and on S1P3 were 67 nM and 550 nM, respectively. `Clc1ncn(Cc2cccc(-c3noc(CCC4(c5ccccc5)CCCCC4)n3)c2)c1Cl` [Example 24, 3-(3-((4,5-dichloro-1H-imidazol-1-yl)methyl)phenyl)-5-(2-(1-phenylcyclohexyl)ethyl)-1,2,4-oxadiazole]: the EC50 on S1P1 [2] was found to be 3200 nM; on S1P3, 1300 nM. At S1P1 [1], `COc1ccc(OC)c(-c2noc(CCC3(c4ccccc4)CCCCC3)n2)c1` [Example 26, 3-(2,5-dimethoxyphenyl)-5-(2-(1-phenylcyclohexyl)ethyl)-1,2,4-oxadiazole] yielded an IC50 of 8.1 nM. Besides, the figures for the concentration for a half-maximal effect (EC50) on S1P1 [2] and at S1P3 were 4900 nM and 16000 nM, respectively. Consider `c1ccc(C2(CCc3nc(-c4ccccn4)no3)CCCCC2)cc1` [Example 30, 2-(5-(2-(1-phenylcyclohexyl)ethyl)-1,2,4-oxadiazol-3-yl)pyridine], for which the IC50 on S1P1 [1] was 97 nM. Compound `FC(F)(F)c1cccc(-c2noc(CCC3(c4ccccc4)CCCCC3)n2)c1` [Example 8, 5-(2-(1-phenylcyclohexyl)ethyl)-3-(3-(trifluoromethyl)phenyl)-1,2,4-oxadiazole] yielded an IC50 at S1P1 [1] of 33 nM. The EC50 on S1P1 [2] is 710 nM; at S1P3, more than 62000 nM. In the case of `Fc1ccc(-c2noc(CCC3(c4ccccc4)CCCCC3)n2)cc1F` [Example 12, 3-(3,4-difluorophenyl)-5-(2-(1-phenylcyclohexyl)ethyl)-1,2,4-oxadiazole], the EC50 at S1P1 [2] turned out to be 330 nM; on S1P3, 5900 nM. Turning to `Cc1ccsc1-c1noc(CCC2(c3ccccc3)CCCCC2)n1` [Example 40, 3-(3-methyl-2-thienyl)-5-(2-(1-phenylcyclohexyl)ethyl)-1,2,4-oxadiazole], the IC50 on S1P1 [1] is 1.2 nM. On the same count and under the same terms, the figure for `Fc1ccccc1COc1ccc(-c2noc(CCC3(c4ccccc4)CCCCC3)n2)cc1` [Example 20, 3-(4-((2-fluorobenzyl)oxy)phenyl)-5-(2-(1-phenylcyclohexyl)ethyl)-1,2,4-oxadiazole] is 410 nM; for `Fc1ccc(-c2noc(CCC3(c4ccccc4)CCCCC3)n2)cc1` [Example 5, 3-(4-fluorophenyl)-5-(2-(1-phenylcyclohexyl)ethyl)-1,2,4-oxadiazole] it is 12 nM.

In general, IC50 refers to the concentration that inhibits the measured activity by half. Low readings indicate greater potency, high ones weaker potency. The EC50 is the concentration at which the effect is half-maximal. A high value points to a less potent agent.
